Read-outs that look alike come from different tables or passages of the source.
Columns and labels:
RF48 = test: Tumor cell killing, RF48; format: cell-based, human; conditions: RF48, GASTRIC; read-out: Tumor cell killing (IC50) concentration
CEM = test: Tumor cell killing, CEM; format: cell-based, human; conditions: read-out: Tumor cell killing (IC50) concentration
MES-SA/DX5 = test: Tumor cell killing, MES-SA/DX5 (multidrug resistant subline); format: cell-based, human; conditions: for IC50: *MESSA/DX5, RESISTANT SARCOMA (multi-drug resistant), read-out: Tumor cell killing (IC50) concentration
Procedure: A. 6aa inhibits the growth of parental (MES-SA) and Paclitaxel resistant (MES-SA/DX5) cell lines with equal efficiency. The parental uterine sarcoma cells and the MDR positive (MES-SA/DX5) cells were plated into 6 well dishes and treated with various concentrations of 6aa and Paclitaxel for 96 h. The number of viable cells from duplicate plates was determined by trypan blue exclusion. B. Soft Agar Assays. MIA-PaCa-2 cells (1.0×10^5) were plated in soft agar containing various concentrations of each compound in triplicates. After three weeks of growth, the plates were stained for 48 h using 0.05% nitroblue tetrazolium solution. Representative plates were photographed using an Olympus stereoscope mounted with a Sony digital camera system (DKC5000, Sony Inc). Tissue Culture and Reagents: […] Cell lines were purchased from ATCC. Cell lines were routinely grown in DMEM or RPM1 (CellGro) supplemented with 10% fetal bovine serum (Atlas) and 1 unit/mL penicillin-streptomycin (Gibco). A number of tumor cell lines were tested using a dose response end point assay system. The cells were grown in either DMEM or RPMI supplemented with 10% fetal bovine serum and 1 unit/mL Penicillin-Streptomycin solution. […] Cell counts were determined from duplicate wells after 96 h of treatment. The total number of viable cells was determined by trypan blue exclusion.

CEM/C2 = test: Tumor cell killing, CEM/C2 (camptothecin-resistant subline); format: cell-based, human; conditions: *CEM/C2, RESISTANT LEUKEMIC (multi-drug resistant); read-out: Tumor cell killing (IC50) concentration
2008 = test: Tumor cell killing, 2008; format: cell-based, human; conditions: 2008, Ovarian; read-out: Tumor cell killing (IC50) concentration
Procedure: (§1) Tissue Culture and Reagents: Paclitaxel was purchased from Sigma. Cell lines were purchased from ATCC. Cell lines were routinely grown in DMEM or RPM1 (CellGro) supplemented with 10% fetal bovine serum (Atlas) and 1 unit/mL penicillin-streptomycin (Gibco).
(§2) A number of tumor cell lines were tested using a dose response end point assay system. The cells were grown in either DMEM or RPMI supplemented with 10% fetal bovine serum and 1 unit/mL Penicillin-Streptomycin solution. The tumor cells were plated into 6 well dishes at a cell density of 1.0×10^5 cells/mL/well and compounds were added 24 h later at various concentrations. Cell counts were determined from duplicate wells after 96 h of treatment. The total number of viable cells was determined by trypan blue exclusion.

2008/17/4 = test: Tumor cell killing, 2008/17/4; format: cell-based, human; conditions: *2008/17/4, Resistant Ovarian (multi-drug resistant); read-out: Tumor cell killing (IC50) concentration
Procedure: as §1, §2

BT20 = test: Soft agar colony formation, BT20; format: cell-based, human; conditions: BT20, dose dependent
DU145 = test: PARP cleavage western blot, tumor cells; format: cell-based, human; conditions: tumor cells (DU145), 24, 48 and 72 h
Procedure: FIG. 2 Preferential tumor cell killing activity of 6aa. A. Cell Cycle analyses. Normal (HUVEC) and tumor cells (DU145) were treated with 20 nM concentration of 6aa and incubated in medium containing 10% fetal bovine serum. At 24 hr intervals, the cells were fixed, stained with propidium iodide and analyzed for their DNA content by flow Cytometry. B. Induction of apoptosis in normal (HUVEC) and tumor cells (DU145) was assessed by western blot analysis of cell lysates treated with 6aa for 24, 48 and 72 h. The Western blots were probed with anti-PARP antibodies to assess the cleavage of the protein.
[…] were plated at a density of 3.0×10^6 cells per 150 mm^2 plate and treated 24 h later with either DMSO or 6aa. The cells were collected at the indicated time points and cell pellets were frozen. The frozen cell pellets were lysed in 1% NP40/PBS lysis buffer containing protease inhibitors. Equal amounts of total cellular protein was then resolved on a 10%-SDS-polyacrylamide gel. The gels were transferred onto nitrocellulose paper (S/S), hybridized with anti-PARP antibodies (BD) and developed using ECL (Perkin-Elmer, MA) solution.

[1] = tested on: BT20 human breast carcinoma xenograft; test: Nude mouse xenograft assay
Procedure: Female athymic (NCr-nu/nu) mice were injected subcutaneously with 0.5-1×10^7 ER-negative human breast tumor cells (BT-20) in 0.2 mL of PBS and the tumors allowed to grow to a size of 100-150 mm^3 in size in about 14 days. The mice were then paired such that the pairs harbored equal sized tumors, which were then used to test the therapeutic effects of 6s and 6ab. A Of the pairs, the animals were treated with either 50 mg/kg 6s following a Q4D schedule or 25 mg/kg using a Q2D schedule or vehicle (DMSO) control. The tumor size was then measured on alternate days in two dimensions and the volume determined using either of the following equations: 1: V=(L×(S^2))π/6); where L is the longer and S is the shorter of the two measurements. B. 6ab was dissolved in PBS and was administered intravenously (50 mg/kg) through the tail vein on every alternate day. Tumor measurements were done as in materials and methods.
Female athymic (NCR-nu/nu, Taconic) nude mice were injected with 0.5-1.0×10^7 BT20 cells subcutaneously in the hind leg using a 1 mL tuberculin syringe equipped with a 271/2 gauge needle. Approximately 14 days later, mice were paired (N=8) and injected with 6ab or Phosphate buffered saline as the vehicle control. The intravenous injections were performed in the mouse tail vein using a 1 mL tuberculin syringe equipped with a 30 gauge needle. The animals were injected following a Q2D×3 schedule. Tumor measurements (two dimensions) were done three times per week using traceable digital vernier calipers (Fisher).

[2] = LEUKEMIC (second listing, r39, parental of CEM/C2)

Q: Which IC50 (RF48) does the source give for `COc1cc(OC)c(/C=C/S(=O)(=O)Cc2ccc(OC)c(O)c2)c(OC)c1` [6aa, (E)-2,4,6-Trimethoxystyryl-3-Hydroxy-4-Methoxybenzyl Sulfone] here?
A: The IC50 was 5 nM.

Q: What about the IC50 (CEM; LEUKEMIC (first listing, r26)) of the same compound?
A: Its IC50 is 9 nM.

Q: What about the IC50 (CEM; [2]) of the same compound?
A: The IC50 was 10 nM.

Q: What about the IC50 (MES-SA/DX5) of the same compound?
A: Its IC50 is 5 nM.

Q: What about the “sensitivity of parental and MDR positive cell lines to cell killing activity” value (MES-SA/DX5; MES-SA and MES-SA/DX5) of the same compound?
A: Its value is “equally sensitive”.

Q: And the IC50 (CEM/C2)?
A: Its IC50 is 10 nM.

Q: And the IC50 2008?
A: Its IC50 is 5 nM.

Q: And the IC50 (2008/17/4)?
A: Its IC50 is 4 nM.

Q: What about the “growth of tumor cells in soft agar” value (BT20) of the same compound?
A: Its value is “complete inhibition of the growth of tumor cells”.

Q: And the “apoptosis as judged by PARP cleavage” value (DU145)?
A: The value was “activation of apoptotic pathways”.

Q: Which results are given for `COc1ccc(CS(=O)(=O)/C=C/c2c(OC)cc(OC)cc2OC)cc1` [6s, (E)-2,4,6-Trimethoxystyryl-4-Methoxybenzyl sulfone]?
A: IC50 (RF48): 10 nM; IC50 (CEM; LEUKEMIC (first listing, r26)): 30 nM; IC50 (CEM; [2]): 30 nM; IC50 (MES-SA/DX5): 10 nM; IC50 (CEM/C2): 10 nM; fold increase in tumor volume ([1]; 25 mg/kg Q2D, IP, 22 day period, vehicle 5 fold): 2.5 fold; final tumor volume ([1]; 25 mg/kg Q2D, IP, after 22 days, from 67.5 mm^3): 165 mm^3; tolerability by body weights and physical observations ([1]; 50 mg/kg Q4D or 25 mg/kg Q2D, IP): well tolerated; fold increase in average tumor volume ([1]; 50 mg/kg Q4D, IP, 22 day period, vehicle 5 fold): 2.9 fold; final average tumor volume ([1]; 50 mg/kg Q4D, IP, after 22 days, from 74 mm^3): 217 mm^3; tumor volume response of the majority of the mice ([1]; 8 mice per group): growth arrest or a gradual reduction in their tumor volume

Reference: patent US8735620B2, “Processes for preparing (E)-styrylbenzylsulfone compounds and uses thereof for treating proliferative disorders” (priority 2008, dated 2014)
